For 25 compounds, EC50 results are on record in patent US11661431B2, “Thienopyrrole compounds” (Gilead Sciences, Inc., priority 2021, dated 2023).

Assay [1] concerns the target TLR7 (Homo sapiens (Human), UniProt Q9NYK1). Kind of assay: TLR7 human peripheral blood mononuclear cell (PBMC) cell-based assay (GS-986 as agonist; IL-6 and IFNα readout). The settings on record: human PBMCs, TLR7 agonist GS-986 at 400 nM, 6 hours, antagonist potency; read-out: TLR-7 EC50. How it is done:
Human peripheral blood mononuclear cells (PBMCs) consist of lymphocytes, monocytes and dendritic cells that express TLR7, TLR8 and TLR9. These cells respond to TLR7, TLR8 and TLR9 ligand stimulation and produce cytokines and chemokines in vitro and in vivo. Human PBMCs are therefore suitable to be used in a cell-based assay to assess the in vitro potency of a TLR 7, 8, and/or 9 antagonist.
After counting, the cell density was adjusted to 2 million cells/ml and incubated for 1 hour at 37° C., 5% CO2 for recovery. Following the recovery, the cells were plated by adding 50 μl per well (100,000 cells) to 384-well cell culture plates (Greiner) containing 250 nl of test antagonists in 100% DMSO per well, in a 10 points dose response in quadruplicates. PBMCs were incubated in the presence of test antagonists for one hour at 37° C., 5% CO2 before being stimulated with a TLR7 or TLR9agonist. […] PBMCs were incubated in the presence of the test antagonist and the TLR7 (or TLR9) agonist for an additional 6 hours at 37° C., 5% CO2. At the end of the incubation, the cell culture plates were centrifuged at 500 g for 5 min, and the cell culture supernatant was collected. The level of cytokines (IL-6 and IFNα) in the supernatant was measured by electrochemiluminescence immunoassays (Mesoscale Discovery) following manufacturer's recommended protocols.

Assay [2] deals with TLR8 (Homo sapiens (Human), UniProt Q9NR97). In words: TLR8 human peripheral blood mononuclear cell (PBMC) cell-based assay (Compound A as agonist; TNFα and IL12p40 readout). The settings on record: human PBMCs, TLR8 agonist Compound A at 800 nM, 6 hours, antagonist potency; read-out: TLR-8 EC50. How it is done: After counting, the cell density was adjusted to 2 million cells/ml and incubated for 1 hour at 37° C., 5% CO2 for recovery. Following the recovery, the cells were plated by adding 50 μl per well (100,000 cells) to 384-well cell culture plates (Greiner) containing 250 nl of test antagonists in 100% DMSO per well, in a 10 points dose response in quadruplicates. PBMCs were incubated in the presence of antagonists for one hour at 37° C., 5% CO2 before being stimulated with TLR8 agonist. […] PBMCs were incubated in the presence of antagonist and the TLR8 agonist for an additional 6 hours at 37° C., 5% CO2. At the end of the incubation, the cell culture plates were centrifuged at 500 g for 5 min, and the cell culture supernatant was collected. The level of cytokines (TNFα and IL12p40) in the supernatant was measured by electrochemiluminescence immunoassays (Mesoscale Discovery) following manufacturer's recommended protocols.
Chain of TLR8 (Q9NR97 27-1041): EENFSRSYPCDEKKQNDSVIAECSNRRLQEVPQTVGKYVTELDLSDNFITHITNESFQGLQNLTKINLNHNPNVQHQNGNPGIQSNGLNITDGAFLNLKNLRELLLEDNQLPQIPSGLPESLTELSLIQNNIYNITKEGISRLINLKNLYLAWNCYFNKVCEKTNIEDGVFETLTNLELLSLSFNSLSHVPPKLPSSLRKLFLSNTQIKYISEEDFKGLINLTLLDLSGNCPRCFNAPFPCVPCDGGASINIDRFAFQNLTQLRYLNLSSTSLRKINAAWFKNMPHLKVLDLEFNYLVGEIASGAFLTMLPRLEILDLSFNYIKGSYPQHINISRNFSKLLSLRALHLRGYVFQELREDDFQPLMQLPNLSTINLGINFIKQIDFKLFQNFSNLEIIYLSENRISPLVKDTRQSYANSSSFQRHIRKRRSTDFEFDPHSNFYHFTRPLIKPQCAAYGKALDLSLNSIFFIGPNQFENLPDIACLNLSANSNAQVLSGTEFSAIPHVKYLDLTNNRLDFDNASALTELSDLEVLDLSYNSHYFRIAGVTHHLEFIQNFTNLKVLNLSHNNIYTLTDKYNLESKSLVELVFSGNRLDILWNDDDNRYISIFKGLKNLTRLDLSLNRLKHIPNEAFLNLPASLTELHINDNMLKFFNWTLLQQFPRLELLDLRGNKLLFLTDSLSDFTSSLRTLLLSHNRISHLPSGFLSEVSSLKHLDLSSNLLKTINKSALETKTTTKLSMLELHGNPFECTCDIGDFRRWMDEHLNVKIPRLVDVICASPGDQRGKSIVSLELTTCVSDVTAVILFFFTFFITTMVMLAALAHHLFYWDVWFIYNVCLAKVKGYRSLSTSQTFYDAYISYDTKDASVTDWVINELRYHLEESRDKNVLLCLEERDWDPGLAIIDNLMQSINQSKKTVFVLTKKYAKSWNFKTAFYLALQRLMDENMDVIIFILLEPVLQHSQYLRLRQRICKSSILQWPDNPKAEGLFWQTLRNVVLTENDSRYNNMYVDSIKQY

Chain of TLR7 (Q9NYK1 27-1049): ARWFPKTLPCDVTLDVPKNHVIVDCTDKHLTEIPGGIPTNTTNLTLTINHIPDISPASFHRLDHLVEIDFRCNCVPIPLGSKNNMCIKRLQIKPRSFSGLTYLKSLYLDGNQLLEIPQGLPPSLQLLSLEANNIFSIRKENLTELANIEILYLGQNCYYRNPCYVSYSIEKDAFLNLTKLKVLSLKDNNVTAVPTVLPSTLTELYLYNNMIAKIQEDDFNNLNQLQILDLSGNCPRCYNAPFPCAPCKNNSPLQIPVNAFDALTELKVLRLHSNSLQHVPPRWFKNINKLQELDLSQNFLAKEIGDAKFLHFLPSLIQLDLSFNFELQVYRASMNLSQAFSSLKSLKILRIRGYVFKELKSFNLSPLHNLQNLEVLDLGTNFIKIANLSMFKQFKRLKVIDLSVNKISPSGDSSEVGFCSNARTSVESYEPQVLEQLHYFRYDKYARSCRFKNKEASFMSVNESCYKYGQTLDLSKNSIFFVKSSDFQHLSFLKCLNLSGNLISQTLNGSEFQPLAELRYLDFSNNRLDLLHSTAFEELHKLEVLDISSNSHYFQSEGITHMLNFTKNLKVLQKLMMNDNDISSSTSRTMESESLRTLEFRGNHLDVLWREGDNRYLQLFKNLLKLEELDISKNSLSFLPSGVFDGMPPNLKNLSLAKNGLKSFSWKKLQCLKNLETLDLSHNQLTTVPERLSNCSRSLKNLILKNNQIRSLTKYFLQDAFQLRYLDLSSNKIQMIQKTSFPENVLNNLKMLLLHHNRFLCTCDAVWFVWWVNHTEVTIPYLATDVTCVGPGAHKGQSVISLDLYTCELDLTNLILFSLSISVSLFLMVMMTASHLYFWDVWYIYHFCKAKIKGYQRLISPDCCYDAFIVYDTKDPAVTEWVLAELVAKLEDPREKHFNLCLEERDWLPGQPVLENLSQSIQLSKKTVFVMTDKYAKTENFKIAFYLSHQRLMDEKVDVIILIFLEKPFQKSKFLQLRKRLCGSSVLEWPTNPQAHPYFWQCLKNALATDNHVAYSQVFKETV

`Cc1c(C2C[C@H]3CNC[C@H]3C2)sc2[nH]c(-c3cc(C)c4ncnn4c3)c(C(C)C)c12` (single isomer, unassigned) [Example 69]: the half-maximal effective concentration (EC50) in assay [1] stood at 0.05 nM; in assay [2] it was 4.2 nM.
Take `Cc1c(-c2[nH]c3sc(C4CC5(CCN(CC(N)=O)C5)C4)c(C)c3c2C(C)C)cn2ncnc2c1C` (single isomer, unassigned) [Example 85, 2-(2-(5-(7,8-dimethyl-[1,2,4]triazolo[1,5-a]pyridin-6-yl)-4 isopropyl-3-methyl-6H-thieno[2,3-b]pyrrol-2-yl)-6-azaspiro[3.4]octan-6-yl)acetamide]: the EC50 came to 0.35 nM in assay [1] and 0.39 nM in assay [2].
The corresponding values for `Cc1c(-c2[nH]c3sc(C4CC5(CCN(CC(N)=O)C5)C4)c(C)c3c2C(C)C)cn2ncnc2c1C` (single isomer, unassigned) [Example 86, 2-(2-(5-(7,8-dimethyl-[1,2,4]triazolo[1,5-a]pyridin-6-yl)-4-isopropyl-3-methyl-6H-thieno[2,3-b]pyrrol-2-yl)-6-azaspiro[3.4]octan-6-yl)acetamide] are 2.43 nM and 0.98 nM.
For `Cc1c(-c2[nH]c3sc(C4COC5(CCN(CC(N)=O)CC5)C4)c(C)c3c2C(C)C)cn2ncnc2c1C` (single isomer, unassigned) [Example 87, 2-(3-(5-(7,8-dimethyl-[1,2,4]triazolo[1,5-a]pyridin-6-yl)-4-isopropyl-3-methyl-6H-thieno[2,3-b]pyrrol-2-yl)-1-oxa-8-azaspiro[4.5]decan-8-yl)acetamide], the concentration giving a half-maximal response (EC50) came out at 0.87 nM in assay [1] and 20.9 nM in assay [2].
For `Cc1c(-c2[nH]c3sc(C4COC5(CCN(CC(N)=O)CC5)C4)c(C)c3c2C(C)C)cn2ncnc2c1C` (single isomer, unassigned) [Example 88, 2-(3-(5-(7,8-dimethyl-[1,2,4]triazolo[1,5-a]pyridin-6-yl)-4-isopropyl-3-methyl-6H-thieno[2,3-b]pyrrol-2-yl)-1-oxa-8-azaspiro[4.5]decan-8-yl)acetamide], in that order: 1.44 nM and 23.8 nM.
Consider `Cc1c(-c2[nH]c3sc(C4CC5(CNCCO5)C4)c(C)c3c2C(C)C)cn2ncnc2c1C` (single isomer, unassigned) [Example 89, 2-(5-(7,8-dimethyl-[1,2,4]triazolo[1,5-a]pyridin-6-yl)-4-isopropyl-3-methyl-6H-thieno[2,3-b]pyrrol-2-yl)-5-oxa-8-azaspiro[3.5]nonane], for which the EC50 in assay [1] was 0.2 nM.
For the compound `Cc1c(-c2[nH]c3sc(C4CC5(CNCCO5)C4)c(C)c3c2C(C)C)cn2ncnc2c1C` (single isomer, unassigned) [Example 90, 2-(5-(7,8-dimethyl-[1,2,4]triazolo[1,5-a]pyridin-6-yl)-4-isopropyl-3-methyl-6H-thieno[2,3-b]pyrrol-2-yl)-5-oxa-8-azaspiro[3.5]nonane], the figures for the EC50 in assay [1] and in assay [2] were 2.68 nM and 6.79 nM, respectively.
For `Cc1c(-c2[nH]c3sc([C@@H]4C[C@@H]5CC[C@H]4CN5CC(N)=O)c(C)c3c2C(C)C)cn2ncnc2c1C` (single isomer, unassigned) [Example 95], in that order: 0.7 nM and 4.45 nM.
The corresponding values for `Cc1c(-c2[nH]c3sc([C@H]4C[C@@H]5CC[C@H]4CN5CC(N)=O)c(C)c3c2C(C)C)cn2ncnc2c1C` (single isomer, unassigned) [Example 96] are 0.83 nM and 6.75 nM.
With `Cc1c(-c2[nH]c3sc([C@@H]4C[C@@H]5C[C@H]4CN5C(C)C(N)=O)c(C)c3c2C(C)C)cn2ncnc2c1C` (single isomer, unassigned) [Example 101], the concentration giving a half-maximal response (EC50) in assay [1] worked out at 0.32 nM; in assay [2], 0.73 nM.
On to `Cc1c(-c2[nH]c3sc(C45CCN(CC(N)=O)CC4C5)c(C)c3c2C(C)C)cn2ncnc2c1C` (single isomer, unassigned) [Example 102, 2-[6-[5-(7,8-dimethyl-[1,2,4]triazolo[1,5-a]pyridin-6-yl)-4-isopropyl-3-methyl-6H-thieno[2,3-b]pyrrol-2-yl]-3-azabicyclo[4.1.0]heptan-3-yl]acetamide], for which the half-maximal effective concentration (EC50) in assay [1] was 0.09 nM; in assay [2], 23.1 nM.
Take `Cc1c(-c2[nH]c3sc(C45CCN(CC(N)=O)CC4C5)c(C)c3c2C(C)C)cn2ncnc2c1C` (single isomer, unassigned) [Example 103, 2-[6-[5-(7,8-dimethyl-[1,2,4]triazolo[1,5-a]pyridin-6-yl)-4-isopropyl-3-methyl-6H-thieno[2,3-b]pyrrol-2-yl]-3-azabicyclo[4.1.0]heptan-3-yl]acetamide]: the concentration for a half-maximal effect (EC50) in assay [1] amounted to 0.91 nM; in assay [2], 20.4 nM.
For `Cc1c([C@H]2C[C@H]3CC[C@@H]2CN3CC(N)=O)sc2[nH]c(-c3cc(C)c4ncnn4c3)c(C(C)C)c12` (single isomer, unassigned) [Example 190], in that order: 3.52 nM and 13.8 nM.
For `Cc1c([C@@H]2C[C@H]3CC[C@@H]2CN3CC(N)=O)sc2[nH]c(-c3cc(C)c4ncnn4c3)c(C(C)C)c12` (single isomer, unassigned) [Example 191], in that order: under 0.05 nM and 8.77 nM.
For `Cc1c(-c2[nH]c3sc([C@H]4C[C@@H]5CC[C@H]4CN5CC(=O)N(C)C)c(C)c3c2C(C)C)cn2ncnc2c1C` (single isomer, unassigned) [Example 212], in that order: 0.45 nM and 6.78 nM.
With `Cc1c(-c2[nH]c3sc([C@@H]4C[C@@H]5CC[C@H]4CN5CC(=O)N(C)C)c(C)c3c2C(C)C)cn2ncnc2c1C` (single isomer, unassigned) [Example 213], the EC50 in assay [1] amounted to 4.05 nM; in assay [2], 3.64 nM.
With `Cc1c(-c2[nH]c3sc([C@H]4C[C@@H]5CC[C@H]4CN5CCS(C)(=O)=O)c(C)c3c2C(C)C)cn2ncnc2c1C` (single isomer, unassigned) [Example 214], the EC50 stood at 4.47 nM in assay [1] and 3.4 nM in assay [2].
For `Cc1c(-c2[nH]c3sc([C@H]4C[C@@H]5CC[C@H]4CN5Cc4cn(C)nn4)c(C)c3c2C(C)C)cn2ncnc2c1C` (single isomer, unassigned) [Example 215], in that order: under 0.05 nM and 0.78 nM.
The corresponding values for `Cc1c(-c2[nH]c3sc([C@@H]4C[C@@H]5CC[C@H]4CN5Cc4cn(C)nn4)c(C)c3c2C(C)C)cn2ncnc2c1C` (single isomer, unassigned) [Example 216] are 2.74 nM and 5.26 nM.
For `Cc1c(-c2[nH]c3sc([C@@H]4C[C@@H]5CC[C@H]4CN5CCS(C)(=O)=O)c(C)c3c2C(C)C)cn2ncnc2c1C` (single isomer, unassigned) [Example 233], in that order: 0.16 nM and 0.79 nM.
In the case of `Cc1c(-c2[nH]c3sc(C4CC(C(=O)N5CCNCC5)C4)c(C)c3c2C(C)C)cn2ncnc2c1C` (single isomer, unassigned) [Example 238, (3-(5-(7,8-dimethyl-[1,2,4]triazolo[1,5-a]pyridin-6-yl)-4-isopropyl-3-methyl-6H-thieno[2,3-b]pyrrol-2-yl)cyclobutyl)(piperazin-1-yl)methanone], the EC50 was 0.39 nM in assay [1] and 1.44 nM in assay [2].
For `Cc1c(-c2[nH]c3sc(C4CC(C(=O)N5CCNCC5)C4)c(C)c3c2C(C)C)cn2ncnc2c1C` (single isomer, unassigned) [Example 239, (3-(5-(7,8-dimethyl-[1,2,4]triazolo[1,5-a]pyridin-6-yl)-4-isopropyl-3-methyl-6H-thieno[2,3-b]pyrrol-2-yl)cyclobutyl)(piperazin-1-yl)methanone], in that order: under 0.05 nM and 1.5 nM.
The corresponding values for `Cc1c(-c2[nH]c3sc(C4CC(c5nnc([C@H]6COCCN6)o5)C4)c(C)c3c2C(C)C)cn2ncnc2c1C` (single isomer, unassigned) [Example 240] are 4.86 nM and 48.4 nM.
On to `Cc1c(-c2[nH]c3sc(C4CC(c5nnc([C@H]6COCCN6)o5)C4)c(C)c3c2C(C)C)cn2ncnc2c1C` (single isomer, unassigned) [Example 241], for which the EC50 in assay [1] came out at 3.51 nM; in assay [2], 30.7 nM.
The corresponding values for `Cc1c(-c2[nH]c3sc([C@H]4C[C@H](c5nnc([C@@H]6COCCN6)o5)C4)c(C)c3c2C(C)C)cn2ncnc2c1C` (single isomer, unassigned) [Example 242] are 2.9 nM and 37.3 nM.
